Experimental data published in patent US20240424019A1, “SHP1 MODIFIED DENDRITIC CELLS AND EXTRACELLULAR VESICLES DERIVED THEREFROM AND ASSOCIATED METHODS” (BOARD OF REGENTS, THE UNIVERSITY OF TEXAS SYSTEM, priority 2021, published 2024).

Assays:
B16-GMCSF melanoma = B16-GMCSF melanoma model; assay type: in vivo, mouse
CD8+ OT-1 T cells = test: DC-EV in vitro assays (H-2Kb-SIINFEKL on EVs, binding to CD8+ T cells, OT-1 proliferation, IFN-γ ELISA); assay type: cell-based, mouse; conditions: EVs of OVA-loaded BMDCs treated with VitE vs vehicle
Experimental: To generate DC-EVs, BMDCs or DC2.4 were cultured at a density of 2×10^6 cells/ml and treated with LPS (100 ng/ml) for 18 h and then treated with OVA protein (250 μg/ml) for 24 hours in DCs culture media supplemented with 10% exosome depleted FBS, which is prepared by the first ultracentrifugation at 100,000 g for 16 h, and then filtering using a 100 nm filter. Supernatants were collected from 48-72 h DCs cultures and EVs were purified by a standard differential ultracentrifugation. […] The purified exosomes were then analyzed and used for experimental procedures. […]
For FACS analysis, exosomes were conjugated with 4 μm aldehyde/sulfate latex beads (Cat. A37304, Thermo Fisher) by overnight incubation. The EVs-bound beads were incubated with glycine to block remaining binding sites and surface expression of SIINFEKL-loaded MHC-I complexes on DC-EVs was determined by staining with anti-mouse H-2K^b bound to SIINFEKL antibody. […]
To verify the physical interactions between DC-EVs and CD8^+ T cells, purified DC-EVs were stained with DiO (Cat. V22889, Thermo Fisher) in 100 μl PBS, and then washed with 10 ml PBS and pelleted by ultracentrifugation. For cell treatment, DC-EVs (10 μg/ml) (unless specified otherwise) were used on the basis of protein concentration determined by a BCA Protein Assay Kit (Pierce). […] After 72 h, the T-cell proliferation was analyzed by FACS. […]

4T1 tumors = test: Orthotopic 4T1 TNBC tumor model; assay type: in vivo, mouse
Experimental: FIG. 6A: Diagram of the experimental paradigm (top) and tumor growth curves (bottom) of orthotopic B16-GMCSF tumor in mice vaccinated with or without GVAX (s.c. at day 1, 4, 7), then treated with vehicle or VitE (50 mg/kg/day daily by oral gavage administration from day 4 to day 20) (n=6/group). FIG. 6B: Tumor weight of 4T1 tumors from mice treated with vehicle. GVAX, ICT (200 μg/mouse anti-PDI and 100 μg/mouse anti-CTLA4 by i.p. at day 7, 10, 13), or GVAX+ICT in combination with vehicle or VitE (50 mg/kg/day daily by oral gavage administration from day 4 to day 25) (n=4) at day 25 after tumor inoculation. FIG. 6C: Flow cytometric analysis (left) and quantification (right) of gp70 tetramer+CD8^+ T cells in 4T1 tumors at day 14 post-implantation with indicated treatments (n=5/group). FIG. 6D: Kaplan-Meier survival curve of 4T1 tumor-bearing mice treated with vehicle, low dosage of Doxorubicin (Dox, 5 mg/kg by i.v.). ICT (200 μg/mouse anti-PD1 and 100 μg/mouse anti-CTLA4 by i.p. at day 7, 10, 13). or Dox+ICT along with vehicle or VitE (n=10). FIG. 6E: Measurement of maximal tumor diameter in HY1936 KPC tumor-bearing mice treated with gemcitabine (GEM, 25 mg/kg by i.p.) and ICT (anti-PDI/anti-CTLA4) along with vehicle or VitE (n=5). FIG. 6F: Kaplan-Meier survival curve of HY19636 KPC tumor-bearing mice treated with vehicle, GEM (gemcitabine, 25 mg/kg by i.p.), GEM+ICT (anti-PDI/anti-CTLA4) plus vehicle or VitE (n=6). Error bars, s.e.m. ns, no significant. *P<0.05. ***P<0.001, ****P<0.0001.
Syngeneic orthotopic PDAC tumors were established by surgical implantation.
Control groups received vehicle (PBS) without the active product.
Where indicated, mice were vaccinated subcutaneously on their contralateral flank with either PBS or 1.0×10^6 35 Gy-irradiated GM-CSF-secreting B16 cells or GM-CSF-secreting 4T1 cells (GVAX) on days 1, 4, and 7 post-tumor injections.
For chemo combination treatment, HY19636 KPC tumor-bearing mice were treated with gemcitabine (GEM) at 25 mg/kg body weight by i.p. injection once a week from day 7 and 4T1 TNBC tumor-bearing mice were given with doxorubicin (Dox, 5 mg/kg body weight) by i.v. once a week from day 10. The chemotherapeutic doses and schedules used in this study are below or within the range of the concentrations used in the clinic after converting drug doses between species.

[1] = doxorubicin+ICT+VitE vs doxorubicin+ICT

What does the source list for `Cc1c(C)c2c(c(C)c1O)CC[C@@](C)(CCC[C@H](C)CCC[C@H](C)CCCC(C)C)O2` [VitE, D-α-Tocopherol]?
tumor growth (B16-GMCSF melanoma; GVAX+VitE (50 mg/kg/day oral gavage day 4-20)): significant tumor inhibition; tumor-infiltrating GZMB+CD8+ T cells (B16-GMCSF melanoma; GVAX+VitE, day 14 post-implantation): increased tumor-infiltrating cytolytic GZMB CD8^+ T cells; therapeutic response (B16-GMCSF melanoma; VitE 50 mg/kg and ICT (anti-PD1) combo-treatment): significantly improved therapeutic response; level of H-2Kb-SIINFEKL complexes on DC-EVs (CD8+ OT-1 T cells): increased the level of H-2Kb-SIINFEKL complexes on DC-EVs; antitumor effect (tumor weight) (4T1 tumors; VitE 50 mg/kg/day combined with GVAX+ICT): significantly enhanced the antitumor effect; gp70 tetramer-specific CD8+ T cells in tumor (4T1 tumors; VitE added to doxorubicin+ICT): increased the infiltration of tumor-infiltrating gp70) tetramer-specific CD8^+ T cells; survival (4T1 tumors; [1]): substantially prolonged the survival; tumor growth and lung metastasis (4T1 tumors; [1]): inhibited tumor growth and lung metastasis
